Test results taken from US20260274814A1, “THIENYL COMPOUNDS FOR THE TREATMENT OF A CENTRAL NERVOUS SYSTEM DISEASE OR DISORDER” (Coreterra Therapeutics, Inc., priority 2023, published 2026).
Where a name gives a salt, the structure may show the parent alone. Read-outs that look alike come from different tables or passages of the source.

System: mice
Assay: Neuropharmacological Assay (SmartCube): automated behavioral signature of compound-treated mice compared with a database of reference drug classes
Format: in vivo
Conditions: for minimal effective dose: Mus musculus, ip; for minimal effective dose / MED (minimal effective dose): i.p., that dose is shown
Excerpt: Neurosci. 2011 Sep. 9; 5: 103 (doi: 10.3389/fnins.2011.00103) (“Roberds”). As reported in Roberds, because psychiatric diseases generally result from disorders of cell-cell communication or circuitry, intact systems are useful in detecting improvement in disease-relevant endpoints. These endpoints are typically behavioral in nature, often requiring human observation and interpretation. To facilitate testing of multiple compounds for behavioral effects relevant to psychiatric disease, PsychoGenics, Inc. (Tarrytown, NY, “PGI”) developed SmartCube™ an automated system in which behaviors of compound-treated mice are captured by digital video and analyzed with computer algorithms. (D. Brunner et al. Drug Discov. Today 2002, 7:S107-S112). PGI Analytical Systems uses data from SmartCube™ to compare the behavioral signature of a test compound to a database of behavioral signatures obtained using a large set of diverse reference compounds. (The composition of the database as well as validation of the method is further described in Roberds). In this way, the neuropharmacological effects of a test compound can be predicted by similarity to major classes of compounds, such as antipsychotics, anxiolytics and antidepressants.
The SmartCube™ system produces an activity signature indicating the probability that the activity of the test compound at the administered dose matches a given class of neuropharmacological agents. (See, e.g., Roberds, FIGS. 2 and 3). The test compound is simultaneously compared against multiple classes of agents; thus, a separate probability is generated for each behavioral effect measured (e.g., anxiolytic activity, analgesic activity, etc.). In table 2 below, these probabilities are reported for each behavioral effect measured as described in Table 1 below.
Provided compounds were dissolved in a mixture of Pharmasolve™ (N-methyl-2-pyrrolidone), polyethylene glycol and propylene glycol, and were injected i.p. 15 min. before the behavioral test. For each compound, injections were administered at 3 different doses. For each behavioral effect measured, results for the 3.0 mg/kg dose are presented. The potency of many of the compounds in the table was also determined in the SmartCube™ system. Test compounds were routinely examined at dose levels of 0.3, 1, 3 and 10 mg per kg (mpk), although the dose range was increased or decreased, if necessary, to obtain a full dose response curve. A compound's minimal effective dose (MED) is a measure of the compound's potency. The MED was defined as the dose (in mpk) having 45% or more total activity in SmartCube. If only one dose was tested, that dose is shown in the MED column of Table 2 even though the dose is not known to be the MED.

[1] = dose having 45% or more total activity in SmartCube, if only one dose was tested, read-out: MED (minimal effective dose)
[2] = probability that activity matches this class of agents, 3.0 mg/kg i.p., 15 min before test
[3] = SmartCube class probability, 3.0 mg/kg i.p., 15 min before test
[4] = SmartCube probability class, 3.0 mg/kg dose, i.p. 15 min before the behavioral test
[5] = dose having 45% or more total activity in SmartCube, if only one dose was tested, hydrochloride
[6] = probability that activity matches this class of agents, 3.0 mg/kg i.p., 15 min before test, hydrochloride, 3 mg/kg

CNC1CCc2cc(F)sc2C1 (racemic) [Compound 79, 2-fluoro-N-methyl-4,5,6,7-tetrahydrobenzothiophen-6-amine hydrochloride]
ND (^ <4%): AG [2] | AN [2] | CE [2] | HL [2] | MS [2] | PS [2] | SH [2] | UK [2]
+ (≥4%): AP [2]
1 mg/kg: minimal effective dose [1]
++ (≥24%): AD [2] | AX [2]

CNC1(C)CCc2cscc2C1 (racemic) [Compound 103, racemic N, 5-dimethyl-6,7-dihydro-4H-2-benzothiophen-5-amine hydrochloride]
1 mg/kg: minimal effective dose [1]
ND (^ <4%): AD [2] | AG [2] | AN [2] | AP [2] | AX [2] | CE [2] | HL [2] | MS [2] | PS [2] | SH [2]
+++ (≥49%): UK [2]

CNC1(C)COc2c(C)csc2C1 (racemic) [Compound 238, N, 3,6-trimethyl-6,7-dihydro-5H-thieno[3,2-b]pyran-6-amine hydrochloride]
++ (≥24%): UK [3]
> 3 mg/kg: minimal effective dose (minimal effective dose: dose having 45% or more total activity in SmartCube, if only one dose tested, read-out: MED)
ND (^ <4%): AD [3] | AG [3] | AN [3] | AP [3] | AX [3] | CE [3] | HL [3] | MS [3] | PS [3] | SH [3]

CNC1COc2scc(C(F)(F)F)c2C1 (racemic) [Compound 288, N-methyl-5-(trifluoromethyl)-3,4-dihydro-2H-thieno[2,3-b]pyran-3-amine hydrochloride]
> 3 mg/kg: minimal effective dose (minimal effective dose: dose having 45% or more total activity in SmartCube, if only one dose was tested, read-out: MED)
ND (^ <4%): AD [4] | AG [4] | AN [4] | AP [4] | AX [4] | CE [4] | HL [4] | MS [4] | PS [4] | SH [4] | UK [4]

CNC1CCc2ccsc2C1.Cl (single isomer, unassigned) [Compound 9, N-methyl-4,5,6,7-tetrahydrobenzothiophen-6-amine hydrochloride]
++ (≥24%): AD [2] | AP [2]
ND (^ <4%): AG [2] | AN [2] | MS [2] | UK [2]
+ (≥4%): AX [6] | CE [6] | HL [6] | PS [6]
0.1 mpk: MED (minimal effective dose) [5]

CNC1CCc2ccsc2C1.Cl (single isomer, unassigned) [Compound 10, N-methyl-4,5,6,7-tetrahydrobenzothiophen-6-amine hydrochloride]
ND (^ <4%): AG [2] | AN [2] | MS [2] | SH [2] | UK [2] | AX [6] | CE [6] | HL [6] | PS [6]
++ (≥24%): AD [2] | AP [2]
0.3 mpk: MED (minimal effective dose) [5]

CNC1CCc2sccc2C1.Cl (single isomer, unassigned) [Compound 11, N-methyl-4,5,6,7-tetrahydrobenzothiophen-5-amine hydrochloride]
ND (^ <4%): AG [2] | AN [2] | CE [2] | HL [2] | MS [2] | PS [2] | SH [2] | UK [2] | AD [6] | AX [6]
0.3 mpk: MED (minimal effective dose) [5]
++++ (≥74%): AP [6]
